Holding throughout (type): cell-based, human
The test system of one data set is SW480A cells. Description: Treatment of SW480A cells with inhibitor of DNA methyltransferases. An excerpt: (§1) DNA methylation is frequently abnormal in colorectal cancer, and it was reported recently that Prox-1 expression is suppressed in human hematological cell lines due to hypermethylation of CpG islands in intron 1 of Prox-1 (Nagai, H. et al., Genes Chromosomes Cancer 38, 13-21 (2003)).

For data set [1], the system named is SW480R cells. Briefly: Treatment of SW480R cells with inhibitor of DNA methyltransferases.
Text: as §1

In data set [2] the test system is SW480R cells. Briefly: BrdU incorporation in siRNA transfected SW480R cells. The method, then: Transfection of siRNAs was carried out using lipofectamine 2000 (Invitrogen) according to manufacturer's instructions using 0.5% (v/v) lipofectamine 2000 reagent for SW480R and 0.4% (v/v) lipofectamine 2000 for adherent SW480 cells and either 2 nM or 100 nM (f.c.) of siRNA. Transfections were carried out in antibiotic-free media for 4-6 hours before changing cells back to normal culture media. For long-term experiments siRNA transfections were repeated after 48-72 h from previous transfection (at protein level the silencing effect was seen to remain efficient for at least 96 h). Normally approximately 90-95% transfection efficiency was achieved. Opti-MEM (Invitrogen) medium was used in preparation of transfection mixtures.
Experiments were conducted to investigate whether Prox-1 plays role in the generation and maintenance of the highly transformed phenotype. Prox-1 mRNA and protein in the SW480R cells was suppressed using Prox-1 targeting siRNA. […] Eventually the Prox-1 siRNA cells started to spread on the plate and a number of increased actin stress fibers could be visualized by phalloidine staining.
(Incorporation of labelled thymidine or its analogues reports DNA synthesis.)

The subject of data set [3] is SW480R cells. Description: Soft agar assay (anchorage-independent growth). The conditions noted are these: transfected repeatedly over 8 days, two weeks of growth. The method, then:
FIG. 3 depicts the efficacy of Prox-1 suppression for inhibiting SW480R cell growth in soft agar. SW480R cells were transfected with GFP siPRNA, Prox-1 siRNA A16 or Prox-1 siRNA A25 or left untreated, and seeded in soft agar in triplicate. The number of colonies was scored after two weeks of growth.
For soft agar assay, 2×10^3 and 2×10^4 cells were seeded in triplicate in 1 ml of 0.33% (w/v) agar (Difco) containing D-MEM, 10% fetal bovine serum, 1 mM glutamine and antibiotics in 6-well plates containing 1 ml of 0.5% bottom agar layer. Cells were fed twice a week, and number of colonies per plate was scored after two weeks in culture.
Since anchorage-independent growth is one of the hallmarks of malignant transformation, experiments were conducted to assess the effects of Prox-1 suppression on the growth of SW480R cells in soft agar. SW480R cells were transfected with GFP siPRNA, Prox-1 siRNA A16 or Prox-1 siRNA A25 repeatedly over an 8-day period, or left untreated, and seeded in soft agar in triplicate. The number of colonies was scored after two weeks of growth.

For the molecule `Nc1ncn([C@H]2C[C@H](O)[C@@H](CO)O2)c(=O)n1` [5-aza-2′-deoxycytidine], in the data set on SW480A cells, the “Prox-1 mRNA” value was “did not result in the increase” and the “expression of TIMP3” value is “increase”. The Prox-1 expression result in the data set with SW480R cells [1] was “almost completely suppressed”.

“GFP siRNA: control siRNA, sense GACGUAAACGGCCACAAGUUU (SEQ ID NO: 8), antisense ACUUGUGGCCGUUUACGUCUU (SEQ ID NO: 9) (listed as RNA, chemistry not given here; listed as Homo sapiens)”: the BrdU positive cells with SW480R cells [2] came out at 34±4%.

Regarding “Prox-1 siRNA A16: siRNA duplex, sense 5′-CUGCAAGCUGGAUAGUGAAGU-3′ (SEQ ID NO: 4), antisense 5′-UUCACUAUCCAGCUUGCAGAU-3′ (SEQ ID NO: 5) (RNA, backbone not given here; listed as Homo sapiens)”, the BrdU positive cells with SW480R cells [2] worked out at 22±0.5%. Moreover, in the data set on SW480R cells [3], the “number of colonies formed in soft agar” value was “significantly decreased”.

Take “Prox-1 siRNA A25: siRNA duplex, sense 5′-CUAUGAGCCAGUUUGAUAUUU-3′ (SEQ ID NO: 6), antisense 5′-AUAUCAAACUGGCUCAUAGUU-3′ (SEQ ID NO: 7) (RNA, backbone not given here; listed as Homo sapiens)”: in the data set with SW480R cells [2], the BrdU positive cells was 18±1%. For the same molecule, in the data set with SW480R cells [3], the “number of colonies formed in soft agar” value is reported as “significantly decreased”.

The values above are taken from patent publication US8029984B2, “Materials and methods for colorectal cancer screening, diagnosis and therapy” (Licentia, Ltd., priority 2003, dated 2011).
